The values below come from publication PMC6985109, “Cellular apoptosis and necrosis as therapeutic targets for novel Eugenol Tosylate Congeners against Candida albicans” (Scientific Reports, 2020).

The test system of the test is C. albicans 4175, C. albicans 5112 and C. albicans SC5314. As to the kind of experiment: TUNEL assay for DNA damage. It counts as cell-based, Candida albicans. To be noted: 0.5 × MIC, 1 × MIC and 2 × MIC, compared to the negative control; dose dependent. Here is the method:
To study the effect of test compounds on apoptotic markers protoplasts were prepared as described previously, with modifications. Briefly, mid-exponential phase cells were harvested and exposed to various concentrations of test compounds (0.5 × MIC, 1 × MIC and 2×MIC) for 3 h. The cells were then washed twice with protoplast buffer- I (1 M sorbitol, 50 mM tris base, 10 mM MgCl2 and 30 mM DTT) and incubated in the same buffer for 15 minutes at 25 °C, followed by centrifugation at 1500 rpm for 5 minutes. Supernatant was removed and cells were incubated with buffer- II (1 M sorbitol, 50 mM tris base, 10 mM MgCl2 and 1 mM DTT) supplemented with lyticase enzyme (≥1 µg/mL) used to digest the cell wall for 1 h at 25 °C. Buffer- II were removed by centrifugation and then cells were incubated with buffer- III (1 M sorbitol, 50 mM tris base and 10 mM MgCl2) for 20 minutes at room temperature. After the incubation cells were again centrifuged at 1500 rpm for 5 minutes and supernatant was discarded. […]
TUNEL assay was used to detect the DNA damage, a hallmark for late stages of apoptosis. […] Slides were examined by fluorescence microscopy using Zeiss Laser Scanning Confocal Microscope (LSM) 780 (Carl Zeiss Microscopy, Jena, Germany) with an excitation wavelength of 495 nm and emission wavelength of 519 nm. […] Images were further analyzed by using software ImageJ.

Turning to `C=CCc1ccc(OS(=O)(=O)c2ccc(C(=O)O)cc2)c(OC)c1` [ETC-7, 4-{[2-methoxy-4-(prop-2-en-1-yl)phenoxy]sulfonyl}benzoic acid], the “TUNEL positive nuclei (DNA fragmentation)” value is listed as “significant increase in proportion of TUNEL positive nuclei”.
